What follows are compounds tested against T1, recombinant human mPGES-1 (Homo sapiens, UniProt O14684) (assay: mPGES-1 inhibition, HTRF detection of PGE2 (Biological Test)).
T1 construct: made in house; host or cells: Rosetta E. coli (microsomal/membrane fraction)
T1 sequence (O14684 1-152): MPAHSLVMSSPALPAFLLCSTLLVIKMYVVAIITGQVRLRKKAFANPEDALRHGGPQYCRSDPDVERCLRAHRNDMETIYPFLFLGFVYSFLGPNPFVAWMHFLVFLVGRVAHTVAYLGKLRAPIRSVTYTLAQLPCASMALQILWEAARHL
Format: biochemical
Procedure: Microsomes from Rosetta E. coli bacteria expressing recombinant human mPGES-1 is dissolved in 0.1 M KPi pH 7.4 buffer containing 2.5 mM GSH. 50 μl of the enzyme is subsequently dispensed in a 384-well plate. 0.5 μl of the inhibitor dissolved in DMSO at is thereafter added to each well and incubated for 25 minutes at room temperature.
Subsequently, 2 μl of PGH2 dissolved in an appropriate solvent is added to each well and after one minute the acidified stop solution containing FeCl2 is added. 4 μl of the total volume is transferred to a separate plate and diluted 750-fold in two separate steps before HTRF detection of PGE2.
The HTRf detection is performed by the use of a commercially available kit from CisBio essentially according to the manufacturer's protocol. Briefly, 10 μl of the diluted sample is transferred to a white 384-well plate. 5 μl of d2 and 5 μl Eu3+-Cryptate labeled anti-PGE2 is added to each well containing samples by the use of a Multidrop. The plate is covered with a plastic self-adhesive film, centrifuged at 1200 rpm for 1 minute and subsequently stored at +4° C. over night.
After over night incubation the fluorescence is measured by the use of an appropriate microplate reader. The fluorescence of europium cryptate, and d2 are measured using the following excitation and emission wavelength, europium cryptate: λmax^ex=307 nm, λmax^em=620 nm and d2: λmax^ex=620 nm, λmax^em=665 nm), respectively. The extent of the specific FRET is measured as a ratio of the emission intensity at 665 nm vs. that at 620 nm. A standard curve using synthetic PGE2 is used to quantify the amount of PGE2 in unknown samples.
For `O=C(N[C@H]1CC[C@H](C(F)(F)F)CC1)c1cc2nc(Nc3c(Cl)cncc3Cl)[nH]c2cc1OC(F)F` [Example 701, 2-(3,5-Dichloropyridin-4-ylamino)-N-(trans-4-trifluoromethyl-cyclohex-1-yl)-6-difluoromethoxy-1H-benzimidazole-5-carboxamide], the inhibition at 10 µM was 100%.
With `COc1cc2[nH]c(Nc3c(Cl)cncc3Cl)nc2cc1C(=O)Nc1ccc(C2CC2)cn1` [Example 684, 2-(3,5-Dichloro-pyridin-4-ylamino)-N-(5-cyclopropyl-pyridin-2-yl)-6-methoxy-1H-benzimidazole-5-carboxamide] the inhibition at 10 µM was 98%.
In the case of `Cn1c(Nc2ccncc2Cl)nc2cc(C(=O)Nc3ccc(Br)cc3)ccc21` [Example 520, N-(4-Bromophenyl)-2-(3-chloropyridin-4-ylamino)-1-methyl-1H-benzimidazole-5-carboxamide], the inhibition at 10 µM is reported as 97%.
For `O=C(N[C@H]1CC[C@H](C(F)(F)F)CC1)c1cc2nc(Nc3c(Cl)cncc3Cl)[nH]c2cc1OCCF` [Example 677, 2-(3,5-Dichloropyridin-4-ylamino)-N-(trans-4-trifluoromethyl-cyclohex-1-yl)-6-(2-fluoroethoxy)-1H-benzimidazole-5-carboxamide], the inhibition at 10 µM was 100%.
In the case of `CCOc1cc2[nH]c(Nc3c(Cl)cncc3Cl)nc2cc1C(=O)NCc1ncccc1Cl` [Example 693, 2-(3,5-Dichloropyridin-4-ylamino)-N-((3-chloro-pyridin-2-yl)-methyl)-6-ethoxy-1H-benzimidazole-5-carboxamide], the inhibition at 10 µM is reported as 97%.
`Cn1c(Nc2c(Cl)cncc2Cl)nc2cc(C(=O)Nc3ccc(Br)cc3)ccc21` [Example 410, N-(4-Bromophenyl)-2-(3,5-dichloropyridin-4-ylamino)-1-methyl-1H-benzimidazole-5-carboxamide] showed an inhibition at 10 µM of 100%.
In the case of `COCCOc1cc2c(cc1C(=O)NC1CCC(C)(C)CC1)nc(Nc1c(Cl)cncc1Cl)n2C` [Example 671, 2-(3,5-Dichloropyridin-4-ylamino)-N-(4,4-dimethyl-cyclohexyl)-6-(2-methoxy-ethoxy)-1-methyl-1H-benzimidazole-5-carboxamide], the inhibition at 10 µM is reported as 100%.
Work on `CC(F)(F)c1cccc(NC(=O)c2cc3nc(Nc4c(Cl)cncc4Cl)[nH]c3cc2OCC(F)(F)F)n1` [Example 706] yielded an inhibition at 10 µM of 100%.
In the case of `Cn1c(Nc2c(Cl)cncc2Cl)nc2cc(C(=O)NCc3ccccc3C(F)(F)F)ccc21` [Example 467, 2-(3,5-Dichloropyridin-4-ylamino)-1-methyl-N-(2-trifluoromethyl-benzyl)-1H-benzimidazole-5-carboxamide], the inhibition at 10 µM is reported as 96%.
Compound `COCCOc1cc2[nH]c(Nc3c(Cl)cncc3Cl)nc2cc1C(=O)NCc1ncccc1C(F)(F)F` [Example 686, 2-(3,5-Dichloro-pyridin-4-ylamino)-N-((3-trifluoromethyl-pyridin-2-yl)-methyl)-6-(2-methoxy-ethoxy)-1H-benzimidazole-5-carboxamide] has an inhibition at 10 µM of 99%.
With `Cn1c(Nc2c(Cl)cncc2Cl)nc2cc(C(=O)NC3CCCCC3)ccc21` [Example 547, N-Cyclohexyl-2-(3,5-dichloropyridin-4-ylamino)-1-methyl-1H-benzimidazole-5-carboxamide] the inhibition at 10 µM was 96%.
`O=C(NCc1ncccc1C(F)F)c1cc2nc(Nc3c(Cl)cncc3Cl)[nH]c2cc1OCC(F)(F)F` [Example 711, 2-(3,5-Dichloropyridin-4-ylamino)-N-((3-difluoromethyl-pyridin-2-yl)-methyl)-6-(2,2,2-trifluoro-ethoxy)-1H-benzimidazole-5-carboxamide] was tested, and the inhibition at 10 µM was 98%.
For `O=C(Nc1cc(C(F)(F)F)ccn1)c1cc2nc(Nc3c(Cl)cncc3Cl)[nH]c2cc1OC(F)F` [Example 702], the inhibition at 10 µM was 95%.
`O=C(Nc1ccc(Br)cc1)c1cc2nc(Nc3c(Cl)cncc3Cl)[nH]c2cc1OC(F)F` [Example 703, 2-(3,5-Dichloropyridin-4-ylamino)-N-(4-bromo-phenyl)-6-difluoromethoxy-1H-benzimidazole-5-carboxamide] gave an inhibition at 10 µM of 98%.
`Cn1c(Nc2c(Cl)cncc2Cl)nc2cc(C(=O)Nc3ccc(Br)cc3)c(OCCN3CCCC3=O)cc21` [Example 664, 2-(3,5-Dichloropyridin-4-ylamino)-N-(4-bromophenyl)-6-(2-(pyrrolidin-2-on-1-yl)-ethoxy)-1-methyl-1H-benzimidazole-5-carboxamide] gave an inhibition at 10 µM of 99%.
`CCOc1cc2[nH]c(Nc3c(Cl)cncc3Cl)nc2cc1C(=O)Nc1cccc(C(F)F)n1` [Example 698] showed an inhibition at 10 µM of 99%.

From patent US9040565B2, “1H-benzimidazole-5-carboxamides as anti-inflammatory agents” (Orexo AB, priority 2008, dated 2015)
